# Experimental data published in patent US9096538B2, “Pharmaceutical comprising PPAR agonist” (Senju Pharmaceutical Co., Ltd., priority 2005, dated 2015).
# Columns and labels:
# Format in all cases: cell-based
# [1] = tested on: rabbit corneal epithelial cell; assay: Test Example 1: increase in cell number, cultured rabbit corneal epithelial cell (Cell Counting Kit-8); conditions: 48 hours, no addition group = 100%, average ± standard deviation, N = 5
# Method: A male rabbit (Japanese white, […] LABES Co., Ltd.) was used. The experimental animal was used according to the International Guiding Principles for Biomedical Research Involving Animals.
# A corneal epithelial cell was prepared from rabbit eyeballs. A cornea was excised from isolated eyeballs, and stored in Dulbecco's phosphate buffered saline (D-PBS; Invitrogen), and this was transferred to a clean bench. The following cell preparation procedures were all performed sterilely.
# The isolated corneal segment was washed with D-PBS with 1% penicillin-streptomycin (Invitrogen) added thereto three times, and was transferred to a minimum essential medium (MEM; Invitrogen). A corneal endothelial cell and a Descemet's membrane of the corneal segment immersed in MEM were peeled with a knife (Alcon) for ocular operation, and the corneal segment (corneal stroma and corneal epithelium) after peeling was transferred to MEM to which dispase II (Roche Diagnostics) had been added to 2.4 U/mL. This was incubated at 37° C. for 1 hour and, thereafter, the dispase II-treated corneal segment was transferred to MEM. The corneal epithelium of the corneal segment immersed in MEM was peeled with the knife for ocular operation, and the corneal segment residue (corneal stroma) was removed from MEM. The peeled corneal epithelial cell and the MEM containing same were recovered in a 50 mL centrifuge tube, subjected to centrifugation at 1,500 rpm for 5 minutes at room temperature. The supernatant was discarded to give a corneal epithelial cell layer. To the corneal epithelial cell layer was added 1 mL of trypsin-EDTA (Invitrogen) and, after thorough mixing, the cells were incubated at 37° C. for 5 minutes to dissociate adhesion between the cells. To this was added 9 mL of MEM containing 10% fetal bovine serum (FBS; Invitrogen) to stop the enzymatic reaction, and this was subjected again to centrifugation at room temperature and 1,500 rpm for 5 minutes to obtain the corneal epithelial cell layer. To the resulting corneal epithelial cell layer was added […] of a serum-free liquid medium for proliferating a normal rabbit corneal epithelial cell (RCGM2; Kurabo Industries LTD.) to suspend the cell, and this was seeded into a culture dish (IWAKI) for culturing a cell having a diameter of 10 cm, to which 9 mL of RCGM2 had been added. […] The culture medium was exchanged with a fresh culture medium every 48 hours until the test day.
# As the test substance, the following compounds were used. • PPARα agonist: WY-14643 (Calbiochem) and fenofibrate (Sigma-Aldrich) • PPARδ agonist: L-165041 (Sigma-Aldrich)
# (§1) For studying the effect of promoting cell proliferation by each test substance, a culture medium prepared by removing a mouse-derived epithelial growth factor (mEGF) attached to RCGM2, from RCGM2, was used as a basal medium, while as a positive control for confirming the effect of promoting cell proliferation, a medium with an mEGF added thereto (basal medium+10 ng/mL mEGF) was used according to instructions of an RCGM2 preparation protocol.
# As a culture dish for a test of cell proliferation promotion, a 96-well culture dish for tissue culture (Corning) was used. On the day before the test, each 50 μL of 0.01% type I collagen (Nitta Gelatin Inc.) was dispensed into each well of the culture dish, and coating was performed at 4° C. until immediately before the test. On the test day, after a type I collagen solution was removed, the bottom of the culture dish was washed three times using D-PBS, and this was used in the test as a collagen-treated culture dish.
# In the test, a rabbit corneal epithelial cell which had been cultured to subconfluent in a culture dish having a diameter of 10 cm was used. After the culture medium was removed, the bottom of the culture dish was washed two times using D-PBS, to this was added 1 mL of trypsin-EDTA, this was incubated at 37° C. for 5 minutes and thereby, the cell was peeled from the bottom of the culture dish. […]
# [2] = tested on: normal human corneal epithelial cell; assay: Test Example 5: increase in cell number, normal human corneal epithelial cell, 24 hours (Cell Counting Kit-8); conditions: no addition group = 100%, average ± standard deviation, N = 3 to 4
# Method: A normal human corneal epithelial cell (KURABO) was used.
# As the test substance, the following compounds were used. PPARδ agonist: L-165041 (Sigma-Aldrich), GW-501516 (Alexis)
# In addition, as a positive control for confirming the cell proliferation promoting effect, a medium in which a mouse-derived epithelial growth factor (mEGF) contained in an HCGS proliferation additive set (KURABO) was added to a basal medium (basal medium+1 ng/mL mEGF) was used.
# This cell suspension was seeded on a fibronectin-coated multiwell plate (24 well, BECTON DICKINSON) so that the cell number became 2×10^4 cells/500 μL/well (since the bottom area is 2 cm^2, the number is 1×10^4 cells/cm^2).
# Further, 24 hours thereafter, the culture medium was exchanged with each 400 μL of the following culture media. • [1] Only basal medium (no addition group) • [2] Basal medium+mEGF (final concentration: 1 ng/mL; positive control group) • [3] Basal medium+L-165041 (final concentration: 0.01 μM and 0.1 μM) • [4] Basal medium+GW-501516 (final concentration: 0.001 μM and 0.01 μM)
# [3] = tested on: rabbit corneal epithelial cell; assay: Test Example 2: increase in cell number, cultured rabbit corneal epithelial cell, 120 hours (Cell Counting Kit-8); conditions: no addition group = 100%, average ± standard deviation, N = 5
# Method: A male rabbit (Japanese white, weight: about 1.5 kg, […] LABES Co., Ltd.) was used. The experimental animal was used according to the International Guiding Principles for Biomedical Research Involving Animals.
# A rabbit corneal epithelial cell was prepared using the same process as that of (Test example 1).
# As the test substance, the following compounds were used. • PPARδ agonist: L-165041 (Sigma-Aldrich) and GW-501516 (Alexis)
# as §1
# Collagen treatment of the culture dish was performed using the same process as that of (Test Example1).
# In the test, a rabbit corneal epithelial cell which had been cultured to subconfluent in a culture dish having a diameter of 10 cm was used. After the culture medium was removed, the bottom of the culture dish was washed two times using D-PBS, to this was added 1 mL of trypsin-EDTA, this was incubated at 37° C. for 5 minutes and thereby, the cell was peeled from the bottom of the culture dish. After incubation, 9 mL of MEM containing 10% FBS was added to the culture dish to stop the enzymatic reaction, and this was subjected to centrifugation at room temperature and 1,500 rpm for 5 minutes to obtain a corneal epithelial cell layer. To the resulting cell was added an appropriate amount of RCGM2 to a cell concentration of 1×10^5 cells/mL to suspend the cell. Each 64 μL of this cell suspension was dispensed in each well at the cell number per bottom area (0.32 cm^2) of the collagen-treated 96-well culture dish for tissue culture of […]. […] After 24 hours from cell seeding, the culture medium was discarded, and each 100 μL of the following culture media were freshly dispensed into each well of the culture dish. • [1] Only basal medium (no addition group) • [2] Basal medium+mEGF (final concentration: 10 ng/mL; positive control group) • [3] Basal medium+L-165041 (final concentration: 0.1 μM and 1 μM) • [4] Basal medium+GW-501516 (final concentration: 0.01 μM and 0.1 μM)
# The culture supernatant of each well was removed every 48 hours from exchange of the culture medium containing a test substance, and each 100 μL of the freshly prepared culture medium was dispensed into each well.
structure (smiles),measurement,setting,value
"CCCc1c(OCCCOc2ccc(OCC(=O)O)cc2)ccc(C(C)=O)c1O [L-165041, (4-(3-(4-acetyl-3-hydroxy-2-propyl)phenoxy)propoxyphenoxy)acetic acid]",Cell proliferation (%),[1]; 10^−6 M,182.2 ± 13.0%
same,Cell proliferation (%),[1]; 10^−7 M,163.3 ± 8.2%
same,Cell proliferation (%),[2]; 10^−7 M,127.8 ± 6.0%
same,Cell proliferation (%),[2]; 10^−8 M,128.1 ± 5.3%
same,Cell proliferation (%),[3]; 10^−6 M,198.6 ± 26.7%
same,Cell proliferation (%),[3]; 10^−7 M,242.5 ± 36.2%
